Test [1] concerns the target T1, KDM2B (FBXL10) (Homo sapiens, UniProt Q8NHM5).
T1 sequence (Q8NHM5 1-650): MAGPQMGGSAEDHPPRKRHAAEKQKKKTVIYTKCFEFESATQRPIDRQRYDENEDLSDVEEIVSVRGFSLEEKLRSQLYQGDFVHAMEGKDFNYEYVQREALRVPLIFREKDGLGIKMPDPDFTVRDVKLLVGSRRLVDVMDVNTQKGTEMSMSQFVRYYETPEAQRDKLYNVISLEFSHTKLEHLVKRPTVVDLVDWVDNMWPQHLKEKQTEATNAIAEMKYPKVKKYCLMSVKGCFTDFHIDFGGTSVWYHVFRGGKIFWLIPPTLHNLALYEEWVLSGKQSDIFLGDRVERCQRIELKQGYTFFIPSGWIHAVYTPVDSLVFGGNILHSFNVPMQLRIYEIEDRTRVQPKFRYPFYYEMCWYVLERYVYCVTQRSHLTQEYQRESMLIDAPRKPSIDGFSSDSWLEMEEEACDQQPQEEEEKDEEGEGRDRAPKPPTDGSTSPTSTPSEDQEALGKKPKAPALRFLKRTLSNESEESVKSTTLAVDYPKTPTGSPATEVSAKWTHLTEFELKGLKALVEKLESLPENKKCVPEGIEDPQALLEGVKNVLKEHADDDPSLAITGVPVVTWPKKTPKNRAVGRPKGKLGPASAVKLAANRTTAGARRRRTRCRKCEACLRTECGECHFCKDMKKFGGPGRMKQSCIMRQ
Kind of test: Histone lysine demethylase AlphaLISA assay, KDM2B. The class given is biochemical. The conditions noted are these: read-out: KDM2B HDME Inhibition IC50. The method in brief:
(§1)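 AlphaLISA demethylation readout: enzyme preincubated 10 min, then 10 min with compounds in 3% DMSO buffer, before biotinylated methyl-lysine histone peptide substrate with 25 μM L-Asc and 10 μM α-KG, room temperature. Acceptor beads then streptavidin donor beads added, dark incubation, plates read.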

For test [2], the target named is T2, KDM3B (JMJD1B) (Homo sapiens, UniProt Q7LBC6).
T2 construct: 842-1761; host or cells: Bac (baculovirus system)
T2 sequence (Q7LBC6 842-1761): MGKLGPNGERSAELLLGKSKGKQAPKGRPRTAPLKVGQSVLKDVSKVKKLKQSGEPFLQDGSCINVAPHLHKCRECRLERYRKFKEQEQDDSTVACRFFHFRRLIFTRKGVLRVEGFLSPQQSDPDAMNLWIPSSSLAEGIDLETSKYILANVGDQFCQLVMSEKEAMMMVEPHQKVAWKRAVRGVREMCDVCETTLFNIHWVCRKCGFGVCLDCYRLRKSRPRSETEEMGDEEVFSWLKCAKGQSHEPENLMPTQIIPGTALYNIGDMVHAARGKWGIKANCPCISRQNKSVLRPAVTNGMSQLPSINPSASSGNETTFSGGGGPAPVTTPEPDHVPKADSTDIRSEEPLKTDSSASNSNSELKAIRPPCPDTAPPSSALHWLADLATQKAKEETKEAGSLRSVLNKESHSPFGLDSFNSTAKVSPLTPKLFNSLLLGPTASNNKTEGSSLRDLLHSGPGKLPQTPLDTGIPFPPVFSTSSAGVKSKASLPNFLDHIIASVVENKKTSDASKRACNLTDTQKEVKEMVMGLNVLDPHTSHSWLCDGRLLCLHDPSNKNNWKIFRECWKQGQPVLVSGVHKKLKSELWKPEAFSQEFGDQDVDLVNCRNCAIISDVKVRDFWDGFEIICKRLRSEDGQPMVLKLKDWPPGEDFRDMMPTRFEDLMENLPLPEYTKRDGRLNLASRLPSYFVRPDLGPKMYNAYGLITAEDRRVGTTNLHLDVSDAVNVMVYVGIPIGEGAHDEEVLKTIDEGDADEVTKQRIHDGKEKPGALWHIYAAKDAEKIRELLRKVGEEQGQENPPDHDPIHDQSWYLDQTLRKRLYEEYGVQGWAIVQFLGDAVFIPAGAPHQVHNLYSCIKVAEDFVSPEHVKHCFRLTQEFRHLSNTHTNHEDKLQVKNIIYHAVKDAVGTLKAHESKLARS
Kind of test: Histone lysine demethylase AlphaLISA assay, KDM3B. The class given is biochemical. The note with it: read-out: KDM3B HDME Inhibition IC50. In a few lines: as §1

These results are taken from patent US9650339B2, “Inhibitors of histone demethylases” (Gilead Sciences, Inc., priority 2013, dated 2017).

With `C#CCN(C)C(=O)CNCc1cc(/C=N/C2CC2)ccn1` [Compound 56, 2-[({4-[N-cyclopropyl-carboximidoyl]-pyridin-2-yl}methyl)amino]-N-methyl-N-(prop-2-yn-1-yl)acetamide], the IC50 in test [1] and in test [2] was more than 2500 nM throughout.
Regarding `CCN(CCN(C)C)C(=O)CNCc1cc(C=O)ccn1` [Compound 101], the IC50 in test [1] and in test [2] was more than 2500 nM each time.
On to `CN(C)CCCCNCc1cc(/C=N\C2CC2)ccn1` [Compound 45, N-{[2-({[4-(dimethylamino)butyl]-amino}methyl)-pyridin-4-yl]methylidene}-cyclopropanamine], for which the half-inhibitory concentration (IC50) in test [1] and in test [2] was more than 2500 nM in each case.
Consider `CN(C)CCCCNCc1cc(CNC2CC2)ccn1` [Compound 10, N-{[2-({[4-(dimethylamino)butyl]-amino}methyl)pyridin-4-yl]methyl}-cyclopropanamine], for which the 50% inhibitory concentration (IC50) in test [1] and in test [2] was more than 2500 nM each time.
For `CCN(CC)CCCCNCc1cc(CN)ccn1` [Compound 5, [2-({[4-(diethylamino)butyl]-amino}methyl)pyridin-4-yl]methanamine], the IC50 in test [1] and in test [2] was more than 2500 nM in each case.
Consider `CCN(CC)C(=O)CNCc1cc(/C=N/CCC2CCCCC2)ccn1` [Compound 57, 2-[({4-[[(2-cyclohexylethyl)imino]-methyl]pyridin-2-yl}methyl)amino]-N,N-diethylacetamide], for which the results for the IC50 in test [1] and in test [2] were 250 to 2500 nM and more than 2500 nM, respectively.
As to `CCN(CCN(C)C)C(=O)CNCc1cc(CN)ccn1` [Compound 4, 2-({[4-(aminomethyl)pyridin-2-yl]methyl}amino)-N-[2-(dimethylamino)ethyl]-N-ethylacetamide], the IC50 in test [1] and in test [2] was more than 2500 nM in each case.
As to `CN(C)CCCCCNCc1cc(C=O)ccn1` [Compound 114, 2-({[5-(dimethylamino)-pentyl]amino}methyl)-pyridine-4-carbaldehyde], the IC50 in test [1] and in test [2] was more than 2500 nM each time.

The IC50 is the concentration that gives 50% inhibition.
